Experimental data from patent publication US11753407B2, “Compounds for treating spinal muscular atrophy” (PTC Therapeutics, Inc., priority 2012, dated 2023).

What was measured:
[1] = test system: SMN2 minigene mRNA (SMN2-A minigene) in HEK293H cells; assay: SMN2 minigene mRNA splicing RT-qPCR assay in cultured cells; format: cell-based, human; settings: Homo sapiens, HEK293-H; concentration increasing full length SMN2 mRNA 1.5-fold relative to vehicle-treated cells; HEK293H cells with SMN2-A minigene, 24 hours, 7-point concentration data; read-out: EC1.5x for production of full length SMN2 mRNA
Outline: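 EC1.5× values derive from a 24 h treatment of SMN2-A minigene HEK293H cells and GAPDH-normalized RT-qPCR of exon 7-included minigene mRNA relative to vehicle-treated cells.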

[2] = test system: Smn protein in SMA patient fibroblast cells (GM03813); assay: Smn protein assay in cultured cells (SMN HTRF); format: cell-based, human; settings: SMA patient fibroblast cells, 48 hours; for EC1.5x for Smn protein expression: 7-point concentration curve, SMN HTRF, concentration producing 1.5 times Smn protein vs DMSO vehicle control; for maximum fold (Fold) increase of Smn protein: 7-point concentration data, fold relative to vehicle control
Outline: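 Cells were cultured 72 h, seeded at 5,000/well and dosed with seven concentrations (3.16-fold apart) for 48 h. HTRF on lysates, read at 665 and 620 nm, gave blank-corrected ΔF values relative to DMSO. Potency is reported as EC1.5×, efficacy as maximal fold Smn increase.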

| SMILES | melting point | EC (1.5-fold increase) [1] [µM] | EC1.5x for Smn protein expression [2] | maximum fold (Fold) increase of Smn protein [2] |
| --- | --- | --- | --- | --- |
| Cc1cn2nc(-c3cc(=O)n4cc(N5CCN(C)[C@@H](C)C5)ccc4n3)cc2c(C)n1 [Compound 258, 7-[(3S)-3,4-dimethylpiperazin-1-yl]-2-(4,6-dimethylpyrazolo[1,5-a]pyrazin-2-yl)-4H-pyrido[1,2-a]pyrimidin-4-one] | 220 to 223 °C | < 0.1 | *** (an EC1.5× between >0.3 μM and ≤1 μM is indicated by three stars (***)) | **** (a fold increase between >1.5 and ≤1.65 is indicated by four stars (****)) |
| Cc1cn2nc(-c3cc(=O)n4cc(N5C[C@@H](C)N(C)[C@@H](C)C5)ccc4n3)cc2c(C)n1 [Compound 259, 2-(4,6-dimethylpyrazolo[1,5-a]pyrazin-2-yl)-7-[(3R,5S)-3,4,5-trimethylpiperazin-1-yl]-4H-pyrido[1,2-a]pyrimidin-4-one] | 254 to 260 °C | < 0.1 | *** (an EC1.5× between >0.3 μM and ≤1 μM is indicated by three stars (***)) | **** (a fold increase between >1.5 and ≤1.65 is indicated by four stars (****)) |
| COc1ccc(-c2cc(=O)n3cc(N4C[C@H]5CN(C)C[C@H]5C4)cc(C)c3n2)cc1OC [Compound 260, 2-(3,4-dimethoxyphenyl)-9-methyl-7-[(3aR,6aS)-5-methylhexahydropyrrolo[3,4-c]pyrrol-2(1H)-yl]-4H-pyrido[1,2-a]pyrimidin-4-one] | 212 to 218 °C | 0.1 to 0.3 | ** (an EC1.5× between >1 μM and ≤3 μM is indicated by two stars (**)) | *** (a fold increase between >1.35 and ≤1.5 is indicated by three stars (***)) |
| COc1ccc(-c2cc(=O)n3cc(N4CCC(N(C)C)CC4)cc(C)c3n2)cc1OC [Compound 261, 2-(3,4-dimethoxyphenyl)-7-[4-(dimethylamino)piperidin-1-yl]-9-methyl-4H-pyrido[1,2-a]pyrimidin-4-one] | 167 to 171 °C | < 0.1 | **** (an EC1.5x≤0.3 μM is indicated by four stars (****)) | **** (a fold increase between >1.5 and ≤1.65 is indicated by four stars (****)) |
| COc1ccc(-c2cc(=O)n3cc(C4=C[C@H]5CC[C@@H](C4)N5)ccc3n2)cc1OC [Compound 262, 7-[(1R,5S)-8-azabicyclo[3.2.1]oct-2-en-3-yl]-2-(3,4-dimethoxyphenyl)-4H-pyrido[1,2-a]pyrimidin-4-one] | 191 to 194 °C | 0.1 to 0.3 | *** (an EC1.5× between >0.3 μM and ≤1 μM is indicated by three stars (***)) | ***** (a fold increase >1.65 is indicated by five stars (*****)) |
| Cc1nc2ccc(-c3cc(=O)n4cc(N5CC[C@@H](N(C)C)C5)ccc4n3)cc2o1 [Compound 264, 7-[(3R)-3-(dimethylamino)pyrrolidin-1-yl]-2-(2-methyl-1,3-benzoxazol-6-yl)-4H-pyrido[1,2-a]pyrimidin-4-one] | 203 to 207 °C | < 0.1 | **** (an EC1.5x≤0.3 μM is indicated by four stars (****)) | ***** (a fold increase >1.65 is indicated by five stars (*****)) |
| CCc1nc2ccc(-c3cc(=O)n4cc(N5CCNCC5)ccc4n3)cc2o1 [Compound 265, 2-(2-ethyl-1,3-benzoxazol-6-yl)-7-(piperazin-1-yl)-4H-pyrido[1,2-a]pyrimidin-4-one] | 170 to 175 °C | 1 to 3 |  | *** (a fold increase between >1.35 and ≤1.5 is indicated by three stars (***)) |
| CCc1nc2ccc(-c3cc(=O)n4cc(N5CCN[C@@H](C)C5)ccc4n3)cc2o1 [Compound 266, 2-(2-ethyl-1,3-benzoxazol-6-yl)-7-[(3S)-3-methylpiperazin-1-yl]-4H-pyrido[1,2-a]pyrimidin-4-one] | 168 to 170 °C | 1 to 3 |  | ** (a fold increase between >1.2 and ≤1.35 is indicated by two stars (**)) |
| Cc1nc2ccc(-c3cc(=O)n4cc(N5C[C@H]6CN(C)C[C@H]6C5)ccc4n3)cc2o1 [Compound 267, 2-(2-methyl-1,3-benzoxazol-6-yl)-7-[(3aR,6aS)-5-methylhexahydropyrrolo[3,4-c]pyrrol-2(1H)-yl]-4H-pyrido[1,2-a]pyrimidin-4-one] | 200 to 204 °C | < 0.1 | **** (an EC1.5x≤0.3 μM is indicated by four stars (****)) | ***** (a fold increase >1.65 is indicated by five stars (*****)) |
| Cc1cn2cc(-c3ccc4nc(N5CCNCC5)cc(=O)n4c3)cc(F)c2n1 [Compound 268, 7-(8-fluoro-2-methylimidazo[1,2-a]pyridin-6-yl)-2-(piperazin-1-yl)-4H-pyrido[1,2-a]pyrimidin-4-one] | 308 °C (dec.) | < 0.1 | **** (an EC1.5x≤0.3 μM is indicated by four stars (****)) | ***** (a fold increase >1.65 is indicated by five stars (*****)) |
| Cc1cn2cc(-c3cc(=O)n4cc(N5CCN6CCC[C@H]6C5)ccc4n3)cc(F)c2n1 [Compound 271, 2-(8-fluoro-2-methylimidazo[1,2-a]pyridin-6-yl)-7-[(8aS)-hexahydropyrrolo[1,2-a]pyrazin-2(1H)-yl]-4H-pyrido[1,2-a]pyrimidin-4-one] | 270 to 274 °C | < 0.1 | **** (an EC1.5x≤0.3 μM is indicated by four stars (****)) | ***** (a fold increase >1.65 is indicated by five stars (*****)) |
| Cc1cn2cc(-c3cc(=O)n4cc(N5CCN6CCC[C@@H]6C5)ccc4n3)cc(F)c2n1 [Compound 272, 2-(8-fluoro-2-methylimidazo[1,2-a]pyridin-6-yl)-7-[(8aR)-hexahydropyrrolo[1,2-a]pyrazin-2(1H)-yl]-4H-pyrido[1,2-a]pyrimidin-4-one] | 277 to 280 °C | < 0.1 | **** (an EC1.5x≤0.3 μM is indicated by four stars (****)) | ***** (a fold increase >1.65 is indicated by five stars (*****)) |
| Cc1cn2cc(-c3cc(=O)n4cc(N5CC[C@@H](N(C)C)C5)ccc4n3)cc(F)c2n1 [Compound 274, 7-[(3R)-3-(dimethylamino)pyrrolidin-1-yl]-2-(8-fluoro-2-methylimidazo[1,2-a]pyridin-6-yl)-4H-pyrido[1,2-a]pyrimidin-4-one] | 300 °C (dec.) | < 0.1 | **** (an EC1.5x≤0.3 μM is indicated by four stars (****)) | ***** (a fold increase >1.65 is indicated by five stars (*****)) |
| Cc1cn2cc(-c3cc(=O)n4cc(N5CC[C@H](N(C)C)C5)ccc4n3)cc(F)c2n1 [Compound 275, 7-[(3S)-3-(dimethylamino)pyrrolidin-1-yl]-2-(8-fluoro-2-methylimidazo[1,2-a]pyridin-6-yl)-4H-pyrido[1,2-a]pyrimidin-4-one] | 294 to 297 °C | < 0.1 | **** (an EC1.5x≤0.3 μM is indicated by four stars (****)) | ***** (a fold increase >1.65 is indicated by five stars (*****)) |
| COc1ccc(-c2ccc3nc(N4CC[C@@H](N(C)C)C4)cc(=O)n3c2)cc1F [Compound 277, 2-[(3R)-3-(dimethylamino)pyrrolidin-1-yl]-7-(3-fluoro-4-methoxyphenyl)-4H-pyrido[1,2-a]pyrimidin-4-one] | 167 to 170 °C | 1 to 3 |  | *** (a fold increase between >1.35 and ≤1.5 is indicated by three stars (***)) |
| COc1ccc(-c2ccc3nc(N4CC[C@H](N(C)C)C4)cc(=O)n3c2)cc1F [Compound 278, 2-[(3S)-3-(dimethylamino)pyrrolidin-1-yl]-7-(3-fluoro-4-methoxyphenyl)-4H-pyrido[1,2-a]pyrimidin-4-one] | 167 to 169 °C | 1 to 3 |  | ** (a fold increase between >1.2 and ≤1.35 is indicated by two stars (**)) |
| COc1ccc(-c2cc(=O)n3cc(N4C[C@H]5CN(CCO)C[C@H]5C4)ccc3n2)cc1F [Compound 279, 2-(3-fluoro-4-methoxyphenyl)-7-[(3aR,6aS)-5-(2-hydroxyethyl)hexahydropyrrolo[3,4-c]pyrrol-2(1H)-yl]-4H-pyrido[1,2-a]pyrimidin-4-one] | 180 to 186 °C | 0.1 to 0.3 |  | ** (a fold increase between >1.2 and ≤1.35 is indicated by two stars (**)) |
| COc1ccc(-c2cc(=O)n3cc(N4C[C@@H]5CCN(C)[C@@H]5C4)ccc3n2)cc1F [Compound 280, 2-(3-fluoro-4-methoxyphenyl)-7-[(3aS,6aS)-1-methylhexahydropyrrolo[3,4-b]pyrrol-5(1H)-yl]-4H-pyrido[1,2-a]pyrimidin-4-one] | 207 to 211 °C | 1 to 3 |  | * (A maximum fold increase of ≤1.2 is indicated by one star (*)) |
